Measurements: patent US9884091B2, “Treatment of neurological diseases” (Lancaster University Business Enterprises Limited, priority 2014, dated 2018)

Assays:
[1] = system: APP/PS1 transgenic mice; assay: Beta-amyloid plaque load in cortex by immunohistochemistry, transgenic Alzheimer's disease mouse model; assay type: in vivo; settings: FIG. 1; 25 nmol/kg i.p. once daily for 8 weeks
Source text: (§1) Transgenic Alzheimer's Disease Mouse Model
(§2) Animal models have been developed to test novel drugs. A standard model for Alzheimer's disease is transgenic mice that express human mutated genes for amyloid production that are known to induce Alzheimer's disease in humans. These APP/PS1 transgenic mice recapitulate some of the symptoms of Alzheimer's disease such as the aggregation of amyloid in the brain, memory loss and the loss of synapses (Radde et al., 2006).
(§3) The APP/PS1 mice express human Swedish mutated APP and human mutated presenilin-1 which induce Alzheimer's Disease in humans.
(§4) The dose of peptide tested was 25 nmol/kg body weight. The peptides were administered by a once-daily intraperitoneal injection for 8 weeks. Saline injections were administered as a control. Five animals per group were injected with a peptide or a saline control.
(§5) Brain Tissue Analysis for Amyloid Plaques and Synapse Numbers in AD Mice
(§6) Animals (5 per group) were perfused transcardially with 30 ml of ice-cold PBS and 30 ml of ice-cold 4% paraformaldehyde to postfix the brain. The brains were removed and placed in fresh 30% sucrose solution in PBS to cryoprotect tissue and cut at a thickness of 40 μm on a cryostat. Sections were chosen according to stereological rules, with the first section taken at random and every 5th section afterwards. Between 7 and 13 sections were analysed per brain. […]

[2] = system: APP/PS1 transgenic mice; assay: Synaptic densities (synaptophysin immunohistochemistry) in cortex, transgenic Alzheimer's disease mouse model; assay type: in vivo; settings: FIG. 2; 25 nmol/kg i.p. once daily for 8 weeks
Source text: as §1, §2, §3, §4, §5, §6

[3] = system: C57BL/6 mice given MPTP; assay: Rotarod motor control test, MPTP Parkinson mouse model; assay type: in vivo; settings: FIG. 3; 25 nmol/kg i.p. once daily
Source text: (§7) A standard model to induce Parkinson like symptoms in mice is the injection of the chemical (MPTP) (Li et al., 2009). This chemical impairs or kills neurons in the brain that produce dopamine. The mice develop motor impairments, and the dopaminergic neurons in the brain are reduced in numbers and function. The enzyme tyrosine hydroxylase (TH) is required to synthetise dopamine. A loss of TH signifies a loss of dopamine production (Harkavyi et al., 2008).
(§8) Adult male C57BL/6 mice were given the dopaminergic toxin MPTP (20 mg/kg in 0.1 mL of PBS i.p. at 2-h intervals of 4 doses MPTP; Sigma) or vehicle (PBS). This treatment selectively affects dopaminergic neurons and induces Parkinson-like symptoms in mice.
as §4
Rotarod Motor Control Test
The rotarod consists of a rotating pole that accelerates over time. Mice are placed on the rod, and motor skills are tested by accelerating the rotation. As the rotation increases, animals lose grip and fall on a cushion located below the rod. […] Each animal's endurance time was recorded, and the average was calculated. Data were analysed using a one-way ANOVA with post-hoc Bonferroni tests.

[4] = system: C57BL/6 mice given MPTP; assay: Open-field motor activity task, MPTP Parkinson mouse model; assay type: in vivo; settings: FIG. 4; 25 nmol/kg i.p. once daily
Source text: as §7, §8, §4
Open-Field Motor Activity Task
Mice (6 per group) received a session of 5 min in the empty open-field (58 cm in diameter; 35 cm high walls) with painted grey walls and grey floor. […] Motor activity was recorded by total path length and travel speed. Data were analysed using two-way ANOVA with post-hoc tests.

[5] = system: APP/PS1 mouse model of AD; settings: 12 months old APP/PS1 mice; cited from earlier work

| Substance | beta-amyloid plaque load in the cortex (% area positive for beta amyloid) [1] | beta-amyloid plaque load, compared with single GIP or GLP-1 analogues [1] | synapse loss in the cortex (synaptic densities) [2] | impairment of motor skills induced by MPTP (rotarod endurance time) [3] | impairment of motor activity induced by MPTP [4] | amyloid plaque load [5] | synaptic plasticity in area CA1 of the hippocampus and spatial memory formation [5] |
| --- | --- | --- | --- | --- | --- | --- | --- |
| YXEGTFTSDYSIYLDKQAAXEFV[Cys-40 kDAPEG]WLLAGGPSSGAPPPS[Lys-γE-C16]-NH2 (YXEGTFTSDYSIYLDKQAAXEFVXWLLAGGPSSGAPPPSX; 40 kDa PEG on Cys24; Lys γGlu-C16; C-amide; GIP/GLP1 co-agonist peptide; VARIANT 2, 20 Xaa = amino-isobutyric acid; VARIANT 24 Xaa = Cys with a covalently linked PEG molecule having an average molecular weight of 40kDa; VARIANT 40 Xaa = lysine residue connected to gamma- glutamate and C16, wherein C16 is a saturated fatty acid or palmitate) [DA2, pegylated version of DA1, position 24 modified to cysteine, γ-Glu spacer linking the C16 fatty acid] | reduces beta-amyloid plaque load | superior to the single GIP or GLP-1 analogues | protected from synapse loss | protect mice from an impairment of motor skills | protect mice from an impairment of motor activity |  |  |
| D-Ala^2-GIP |  |  |  |  |  | much reduced | unimpaired |
